Reference: PubChem BioAssay AID328 (DTP/NCI, 2004)
Several values for one entry are separate records, joined by “and”; a condition that tells them apart may be missing. Identical values can stand only once. Inconclusive results and toxic doses are left out. How the source made its calls: active means survival T/C of 150% or more; inactive means T/C below 125% in these data.

Tested on: BDF1 mice, P388 leukemia ip, median survival T/C
Assay: NCI In Vivo Anticancer Drug Screen. Data for tumor model P388 Leukemia (intraperitoneal) in B6D2F1 (BDF1) mice
Details: endpoint: median survival time, higher = longer survival
Outline: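 T/C = treated-group survival ÷ vehicle-control survival; tumour transplanted into mice before dosing.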

[1] = dose: 100.0 mg/kg/injection, schedule: Q01DX009 (ip), vehicle: saline with Tween-80
[2] = dose: 100.0 mg/kg/injection, schedule: Q04DX003 (ip), vehicle: saline with Tween-80
[3] = dose: 200.0 mg/kg/injection, schedule: Q01DX009 (ip), vehicle: saline with Tween-80
[4] = dose: 200.0 mg/kg/injection, schedule: Q04DX003 (ip), vehicle: saline with Tween-80
[5] = dose: 400.0 mg/kg/injection, schedule: Q01DX009 (ip), vehicle: saline with Tween-80
[6] = dose: 400.0 mg/kg/injection, schedule: Q04DX003 (ip), vehicle: saline with Tween-80
[7] = dose: 50.0 mg/kg/injection, schedule: Q01DX009 (ip), vehicle: saline with Tween-80
[8] = dose: 25.0 mg/kg/injection, schedule: Q01DX009 (ip), vehicle: saline
[9] = dose: 50.0 mg/kg/injection, schedule: Q01DX009 (ip), vehicle: saline
[10] = dose: 100.0 mg/kg/injection, schedule: Q04DX003 (ip), vehicle: Klucel (hydroxypropylcellulose) (HPC)
[11] = dose: 200.0 mg/kg/injection, schedule: Q04DX003 (ip), vehicle: Klucel (hydroxypropylcellulose) (HPC)
[12] = dose: 400.0 mg/kg/injection, schedule: Q04DX003 (ip), vehicle: Klucel (hydroxypropylcellulose) (HPC)
[13] = dose: 100.0 mg/kg/injection, schedule: Q01DX009 (ip), vehicle: saline
[14] = dose: 100.0 mg/kg/injection, schedule: Q04DX003 (ip), vehicle: saline
[15] = dose: 200.0 mg/kg/injection, schedule: Q01DX009 (ip), vehicle: saline
[16] = dose: 400.0 mg/kg/injection, schedule: Q04DX003 (ip), vehicle: saline

Measured: T/C

CC(C)C1=CC2=CC[C@@H]3[C@](C)(CCC[C@@]3(C)C(=O)O)[C@H]2CC1
inactive: [1] 100 % of control | [2] 100 % of control | [3] 100 % of control | [4] 100 % of control | [5] 100 % of control | [6] 100 % of control

C[C@@H](O)[C@@H](O)c1cnc2nc(N)[nH]c(=O)c2n1
inactive: dose: 50.0 mg/kg/injection, schedule: Q01DX005 (ip), vehicle: saline with Tween-80 100 % of control | dose: 100.0 mg/kg/injection, schedule: Q01DX005 (ip), vehicle: saline with Tween-80 91 % of control | dose: 200.0 mg/kg/injection, schedule: Q01DX005 (ip), vehicle: saline with Tween-80 115 % of control

COC1/C=C\OC2(C)Oc3c(C)c(O)c4c(c3C2=O)C(=O)C=C(NC(=O)C(C)=C/C=C\C(C)C(O)C(C)C2OC(C)(C)OC(C1C)C2C)C4=O (centres undefined)
inactive: [7] 103 % of control | [1] 100 % of control | [3] 93 % of control

C=C1C(=O)OC2CC(C)C3CCC(=O)C3(C)C(O)C12 (centres undefined)
inactive: dose: 4.0 mg/kg/injection, schedule: Q01DX009 (ip), vehicle: Klucel (hydroxypropylcellulose) (HPC) 90 % of control | dose: 8.0 mg/kg/injection, schedule: Q01DX009 (ip), vehicle: Klucel (hydroxypropylcellulose) (HPC) 95 % of control | dose: 16.0 mg/kg/injection, schedule: Q01DX009 (ip), vehicle: Klucel (hydroxypropylcellulose) (HPC) 104 % of control | dose: 32.0 mg/kg/injection, schedule: Q01DX009 (ip), vehicle: Klucel (hydroxypropylcellulose) (HPC) 111 % of control

CC(=O)OC1CC2CC1C1C3C=CC(C3)C21 (centres undefined)
inactive: [1] 109 % of control

COC1OC2COC(c3ccccc3)OC2C2OC12 (centres undefined)
inactive: dose: 6.25 mg/kg/injection, schedule: Q01DX009 (ip), vehicle: saline with Tween-80 109 % of control | dose: 12.5 mg/kg/injection, schedule: Q01DX009 (ip), vehicle: saline with Tween-80 99 % of control | dose: 25.0 mg/kg/injection, schedule: Q01DX009 (ip), vehicle: saline with Tween-80 96 % of control | [7] 100 % of control | [2] 109 % of control | [4] 100 % of control | [6] 100 % of control

Oc1cccnc1CN1CCCCC1
inactive: dose: 6.25 mg/kg/injection, schedule: Q01DX009 (ip), vehicle: saline 103 % of control | dose: 12.5 mg/kg/injection, schedule: Q01DX009 (ip), vehicle: saline 111 % of control | [8] 107 % of control | [9] 88 % of control

Cc1cc(Cl)nc(Nc2ccccc2)n1
inactive: dose: 3.12 mg/kg/injection, schedule: Q01DX009 (ip), vehicle: DMSO 100 % of control | dose: 6.25 mg/kg/injection, schedule: Q01DX009 (ip), vehicle: DMSO 95 % of control and 100 % of control | dose: 6.25 mg/kg/injection, schedule: Q04DX003 (ip), vehicle: DMSO 100 % of control | dose: 12.5 mg/kg/injection, schedule: Q01DX009 (ip), vehicle: DMSO 100 % of control | dose: 12.5 mg/kg/injection, schedule: Q04DX003 (ip), vehicle: DMSO 108 % of control | dose: 25.0 mg/kg/injection, schedule: Q01DX009 (ip), vehicle: DMSO 95 % of control | dose: 25.0 mg/kg/injection, schedule: Q04DX003 (ip), vehicle: DMSO 91 % of control

COc1ccc(C)cc1CN1NC(=O)CC1=N
inactive: dose: 100.0 mg/kg/injection, schedule: Q01DX009 (ip), vehicle: Klucel (hydroxypropylcellulose) (HPC) 100 % of control | [10] 100 % of control | dose: 200.0 mg/kg/injection, schedule: Q01DX009 (ip), vehicle: Klucel (hydroxypropylcellulose) (HPC) 109 % of control | [11] 122 % of control | dose: 400.0 mg/kg/injection, schedule: Q01DX009 (ip), vehicle: Klucel (hydroxypropylcellulose) (HPC) 100 % of control | [12] 94 % of control

CC(=O)CC(C)=O.CC(=O)CC(C)=O.O=N[O-].O=N[O-].[Co]
inactive: dose: 25.0 mg/kg/injection, schedule: Q04DX002 (ip), vehicle: saline with Tween-80 106 % of control | dose: 50.0 mg/kg/injection, schedule: Q04DX002 (ip), vehicle: saline with Tween-80 109 % of control

CC(NSc1ccccc1[N+](=O)[O-])C(=O)O (centres undefined)
inactive: [7] 98 % of control | [1] 113 % of control

CCc1ccccc1OS(=O)(=O)c1ccccc1[N+](=O)[O-]
inactive: [10] 100 % of control | [11] 100 % of control | [12] 100 % of control

OC1CC[N-]CC1.OC1CC[N-]CC1.[Cl][Pt+2]([Cl])([Cl])[Cl]
inactive: dose: 25.0 mg/kg/injection, schedule: Q04DX003 (ip), vehicle: saline with Tween-80 109 % of control | dose: 50.0 mg/kg/injection, schedule: Q04DX003 (ip), vehicle: saline with Tween-80 102 % of control

CN1CCN(c2nn3nnnc3c3ccccc23)CC1
inactive: dose: 20.0 mg/kg/injection, schedule: Q01DX009 (ip), vehicle: saline with Tween-80 89 % of control | dose: 40.0 mg/kg/injection, schedule: Q01DX009 (ip), vehicle: saline with Tween-80 94 % of control | dose: 80.0 mg/kg/injection, schedule: Q01DX009 (ip), vehicle: saline with Tween-80 93 % of control

O=C1c2ccc(Br)cc2-c2cc(Br)ccc21
inactive: [1] 99 % of control | [3] 106 % of control | [5] 101 % of control

O=C(O)CCSCCC(=O)O
inactive: dose: 100.0 mg/kg/injection, schedule: Q01DX001 (ip), vehicle: Klucel (hydroxypropylcellulose) (HPC) 104 % of control | [10] 104 % of control | dose: 200.0 mg/kg/injection, schedule: Q01DX001 (ip), vehicle: Klucel (hydroxypropylcellulose) (HPC) 108 % of control | [11] 100 % of control | dose: 400.0 mg/kg/injection, schedule: Q01DX001 (ip), vehicle: Klucel (hydroxypropylcellulose) (HPC) 116 % of control | [12] 113 % of control

CNCCSS(=O)(=O)CCNC
inactive: dose: 100.0 mg/kg/injection, schedule: Q01DX005 (ip), vehicle: saline 94 % of control

CCOC(=O)/C=C/c1c[nH]c(=O)[nH]c1=O
inactive: [8] 101 % of control | [9] 101 % of control | [13] 101 % of control | [14] 114 % of control | [15] 104 % of control | dose: 200.0 mg/kg/injection, schedule: Q04DX003 (ip), vehicle: saline 96 % of control | [16] 96 % of control

CC(C)S(=O)(=O)/C(Cl)=C(/Cl)C(Cl)=C(Cl)Cl
inactive: dose: 13.0 mg/kg/injection, schedule: Q01DX009 (ip), vehicle: Klucel (hydroxypropylcellulose) (HPC) 100 % of control | dose: 20.0 mg/kg/injection, schedule: Q01DX009 (ip), vehicle: Klucel (hydroxypropylcellulose) (HPC) 100 % of control | dose: 30.0 mg/kg/injection, schedule: Q01DX009 (ip), vehicle: Klucel (hydroxypropylcellulose) (HPC) 95 % of control

COc1ccc(C(=O)CC(C#N)c2ccc(OC)cc2)cc1 (centres undefined)
inactive: [7] 106 % of control | [1] 106 % of control | [3] 101 % of control

c1ccc(-c2cscc2-c2ccccc2)cc1
inactive: dose: 25.0 mg/kg/injection, schedule: Q04DX003 (ip), vehicle: saline 97 % of control | [9] 93 % of control | dose: 50.0 mg/kg/injection, schedule: Q04DX003 (ip), vehicle: saline 108 % of control | [13] 93 % of control | [14] 100 % of control | [15] 101 % of control | dose: 400.0 mg/kg/injection, schedule: Q01DX009 (ip), vehicle: saline 93 % of control | [16] 100 % of control
